{
  "source": "patent US20220233624A9",
  "about": "“ANTI-CANCER AND ANTI-PROLIFERATIVE COMPOSITIONS, AND METHODS FOR THEIR USE IN TREATING CANCER” (Natreon, Inc., priority 2020, published 2022)",
  "key": {"[1]": {"system": "AML (Acute myeloid leukemia) PDCs, M4 subtype (SB 33866)", "assay": "Anti-proliferation assay on AML PDCs", "format": "cell-based, human", "conditions": "for inhibition at 10 µM: assay drug control @ 10 uM", "method": "Anti-proliferation assays were performed on 6 types of primary patient-derived cancer cells (PDCs) from 6 different human donors, as described in Table 1:\nTests were performed in 384-well plates (24×16), using 1250 to 10,000 cells/well depending on the size and proliferation rate of different PDCs, in 30 ul of culture media (DMEM/F12 with serum and growth factors), with control wells set aside on each plate for media alone (4 wells), untreated PDCs (4 wells), and for PDCs treated with 10 ul of a known anti-cancer drug as a control. […] The outermost rows/columns of the plates were filled with PBS (pH 7.4) to avoid an edge-effect and were considered as blanks.\nStandardized aqueous extracts identified in Table 2 were prepared in main stock solutions by dissolving 1 mg of extract in 1 ml PBS (phosphate-buffered saline, pH 7.4).\nAnti-Proliferation Assay Protocol: 30 ul of cells were plated at the density of 1250 to 10,000 cells/well. The plate was incubated in a CO2 incubator for 0/N incubation for 24 hours. […] Final assay concentrations of made from stock solutions of standardized aqueous extracts identified in Table 2 were 100 ug/ml, 30 ug/ml, and 10 ug/ml. Since 10 ul extract was added to 30 ul of cell suspension, it diluted 4 times, so to maintain the final assay concentrations, 4× concentrated extract solutions (400 ug/ml, 120 ug/ml, and 40 ug/mo) were prepared from main stock (1 mg/ml) and added to the plate. In all experiments, 10 ul of 4 times concentrated stock (4×) was added to wells containing 30 ul of cell suspension to achieve final assay concentrations at 1X.\nOnce extracts were added to incubated cells and mixed gently, the plate was given a brief spin and incubated in the CO2 incubator for 72 hours. The plate was removed from the incubator and 10 ul of detection reagent (CellTiterGlo®; Promega Corporation, Wisconsin, USA) added to each well of the 384 well plate. The plate was incubated (10 min) and luminescence counts measured, with luminescence produced proportional to the number of viable (living, metabolically active) cells for each assay. The assay described above is a two-dimensional (2D) assay.\nIn this Example, AML drugs were used as disease specific controls.\nAs discussed above in Example I, 6 extracts (Ayuflex®, Capros®, Phyto-BGS®, PrimaVie®, Sensoril®, and Ayuric®) were tested on AML PDC-SB cells (33866, M-4 type, subject) at 3 concentrations: 100 ug/ml, 30 ug/ml, and 10 ug/ml."}, "[2]": {"system": "TN Breast Cancer cell line MDAMB-231", "assay": "Anti-proliferation assay on MDAMB-231 cells (72 h and 120 h)", "format": "cell-based", "conditions": "Homo sapiens, MDA-MB-231, 10 uM", "method": "Also, AyuFlex®, Capros®, and Ayuric® were tested in the anti-proliferative assay discussed above in the TN Breast Cancer cell line MDAMB-231. AyuFlex®, Capros®, and Ayuric® were incubated for 72 hours and 120 hours. The dose-response efficacy of AyuFlex®, Capros®, and Ayuric® after a 72-hour period of incubation was similar to that observed after a 120-hour period of incubation with the MDAMB-231 cells. Without being bound by theory, possibly this was due to saturation of cell growth at the 120-hour time-point."}, "[3]": {"system": "Pancreatic cancer (Panc-1) cells", "assay": "Anti-proliferation assay on pancreatic cancer cells", "format": "cell-based", "conditions": "Homo sapiens", "method": "Cells were plated at 1.25 k/well in 384 well plates. […] Anti-proliferative assays were generally performed as described in Example I above, in triplicate, with detection reagent CellTiterGlo. Tables 98-99 show data for controls for assays on histiocytic lymphoma (U-937) cells, and that the data passed quality control parameters. Tables 101-102 show data for controls for assays on pancreatic cancer (Panc-1) cells, and that the data passed quality control parameters. […] The assay is generally as described in Example I."}, "[4]": {"system": "Glioma PDCs (Glioblastoma Grade IV)", "assay": "Anti-proliferation assay (CellTiterGlo, 72 h) on glioma PDCs", "format": "cell-based, human", "conditions": "drug alone @ 10 uM; for inhibition at 10 µM: Homo sapiens", "method": "The outermost rows/columns of the plates were filled with PBS (pH 7.4) to avoid an edge-effect and were considered as blanks. Standardized aqueous extracts identified in Table 2 were prepared in main stock solutions by dissolving 1 mg of extract in 1 ml PBS (phosphate-buffered saline, pH 7.4). […] The plate was incubated in a CO2 incubator for 0/N incubation for 24 hours. […] Once extracts were added to incubated cells and mixed gently, the plate was given a brief spin and incubated in the CO2 incubator for 72 hours. The plate was removed from the incubator and 10 ul of detection reagent (CellTiterGlo®; Promega Corporation, Wisconsin, USA) added to each well of the 384 well plate. […] The assay described above is a two-dimensional (2D) assay."}, "AML cell line HL60": {"system": "AML cell line HL60", "assay": "Anti-proliferation assay on HL60 AML cells", "format": "cell-based", "conditions": "for inhibition at 10 µM: 72 h, Plate 1", "method": "2500 cells were plated per well in 384 well plates. […] CellTiter Glo was used as a detection reagent. Extracts were incubated with the AML HL60 cells for 72 hours."}, "[5]": {"system": "colon cancer cells (cell line HT-29)", "assay": "Anti-proliferation assay on colon cancer cells", "format": "cell-based", "conditions": "Homo sapiens", "method": "Anti-proliferative and anti-cancer activity of extracts of this invention on non-small cell lung cancer cells and colon cancer cells were assessed generally as described in Example I and are discussed below. […] As noted throughout this application, the below data is intended to describe the present invention but not to be limiting.\nNon-small cell lung cancer cells (cell line NCI-H-358) and colon cancer cells (cell line HT-29) were plated in a 384-well plate in amounts of about 1.25 k cells/well. […] Wells with untreated cells and with plain media were also included as controls. Plates passed quality control parameters."}},
  "note": "pIC50: −log10 of the molar value. Where “and” joins values, the source holds several entries; their conditions need not be identical. Equal entries are not always repeated. Where two headings read alike, the source gives them in different places.",
  "data": [
    {"smiles": "COc1cccc2c1C(=O)c1c(O)c3c(c(O)c1C2=O)C[C@@](O)(C(=O)CO)C[C@@H]3O[C@H]1C[C@H](N)[C@H](O)[C@H](C)O1", "note": "[Doxorubicin, doxorubicin]", "values": [
      {"measurement": "Inhibitory Concentration IC75", "setting": "[1]; AML cells (M4)", "value": 260, "unit": "nM"},
      {"measurement": "inhibition at 10 µM", "setting": "[1]; Homo sapiens, read-out: % Inhibition Avg", "value": 72, "unit": "%"},
      {"measurement": "inhibition at 10 µM", "setting": "[1]; Homo sapiens, read-out: % Inhibition n1", "value": 70, "unit": "%"},
      {"measurement": "inhibition at 10 µM", "setting": "[1]; Homo sapiens, read-out: % Inhibition n2", "value": 73, "unit": "%"},
      {"measurement": "inhibition at 3 µM", "setting": "[1]; Homo sapiens, drug alone 3 uM, read-out: inhibition of AML proliferation", "value": 100, "unit": "%"},
      {"measurement": "inhibition at 3 µM", "setting": "[1]; Homo sapiens, drug alone @ 3 uM, read-out: % Inhibition Avg", "value": 100, "unit": "%"},
      {"measurement": "inhibition at 3 µM", "setting": "[1]; Homo sapiens, drug alone @ 3 uM, read-out: % Inhibition n1", "value": 100, "unit": "%"},
      {"measurement": "inhibition at 3 µM", "setting": "[1]; Homo sapiens, drug alone @ 3 uM, read-out: % Inhibition n2", "value": 100, "unit": "%"},
      {"measurement": "inhibition at 3 µM", "setting": "[1]; Homo sapiens, drug alone @ 3 uM, read-out: % Inhibition n3", "value": 100, "unit": "%"},
      {"measurement": "pIC50", "setting": "[1]; Homo sapiens, AML cells (M4), read-out: Inhibitory Concentration IC50", "value": 6.99},
      {"measurement": "inhibition at 10 µM", "setting": "[2]; 72 hour incubation, read-out: % Inhibition Avg", "value": 75, "unit": "%"},
      {"measurement": "inhibition at 10 µM", "setting": "[2]; 72 hour incubation, read-out: % Inhibition n1", "value": 78, "unit": "%"},
      {"measurement": "inhibition at 10 µM", "setting": "[2]; 72 hour incubation, read-out: % Inhibition n2", "value": 73, "unit": "%"},
      {"measurement": "inhibition at 10 µM", "setting": "[2]; 72 hour incubation, read-out: % Inhibition n3", "value": 73, "unit": "%"},
      {"measurement": "inhibition at 10 µM", "setting": "[2]; 120 hour incubation, read-out: % Inhibition Avg", "value": 92, "unit": "%"},
      {"measurement": "inhibition at 10 µM", "setting": "[2]; 120 hour incubation, read-out: % Inhibition n1", "value": 94, "unit": "%"},
      {"measurement": "inhibition at 10 µM", "setting": "[2]; 120 hour incubation, read-out: % Inhibition n2", "value": 91, "unit": "%"},
      {"measurement": "inhibition at 10 µM", "setting": "[2]; 120 hour incubation, read-out: % Inhibition n3", "value": 92, "unit": "%"},
      {"measurement": "inhibition at 10 µM", "setting": "[3]; 10 uM, 72 h, read-out: % Inhibition Average (SD)", "value": 94, "unit": "%"},
      {"measurement": "inhibition at 10 µM", "setting": "[3]; 10 uM, 72 h, read-out: % Inhibition n1", "value": 94, "unit": "%"},
      {"measurement": "inhibition at 10 µM", "setting": "[3]; 10 uM, 72 h, read-out: % Inhibition n2", "value": 94, "unit": "%"},
      {"measurement": "inhibition at 10 µM", "setting": "[3]; 10 uM, 72 h, read-out: % Inhibition n3", "value": 95, "unit": "%"},
      {"measurement": "inhibition at 10 µM", "setting": "[3]; drug 10 uM, read-out: inhibition", "value": 94, "unit": "%"},
      {"measurement": "inhibition at 10 µM", "setting": "[4]; read-out: % Inhibition Avg", "value": 82, "unit": "%"},
      {"measurement": "inhibition at 10 µM", "setting": "[4]; read-out: % Inhibition, single replicates", "value": 81, "unit": "%"},
      {"measurement": "% Inhibition Avg", "setting": "[4]; 10 µM", "value": 97, "unit": "%"},
      {"measurement": "% Inhibition, single replicates", "setting": "[4]; 10 µM", "value": "83% and 98% and 97% and 96%"},
      {"measurement": "IC25", "setting": "AML cell line HL60; HL60 AML cells, potential dosing for further experiments", "value": 59, "unit": "nM"},
      {"measurement": "inhibition at 3 µM", "setting": "AML cell line HL60; Homo sapiens, HL-60", "value": "≥ 90", "unit": "%"},
      {"measurement": "inhibition at 10 µM", "setting": "AML cell line HL60; Homo sapiens, HL-60, read-out: % Inhibition Average (SD)", "value": 0, "unit": "%"},
      {"measurement": "inhibition at 10 µM", "setting": "AML cell line HL60; Homo sapiens, HL-60, read-out: % Inhibition n1", "value": 100, "unit": "%"},
      {"measurement": "inhibition at 10 µM", "setting": "AML cell line HL60; Homo sapiens, HL-60, read-out: % Inhibition n2", "value": 100, "unit": "%"},
      {"measurement": "inhibition at 10 µM", "setting": "AML cell line HL60; Homo sapiens, HL-60, read-out: % Inhibition n3", "value": 100, "unit": "%"},
      {"measurement": "pIC50", "setting": "AML cell line HL60; Homo sapiens, HL-60, dose-response curve, FIG. 35", "value": 7.10},
      {"measurement": "inhibition at 10 µM", "setting": "[5]; drug 10 uM, read-out: inhibition of proliferation", "value": 94, "unit": "%"},
      {"measurement": "inhibition at 10 µM", "setting": "[5]; plate control @ 10 uM, read-out: % Inhibition Average (SD)", "value": 94, "unit": "%"},
      {"measurement": "inhibition at 10 µM", "setting": "[5]; plate control @ 10 uM, read-out: % Inhibition n1", "value": 94, "unit": "%"},
      {"measurement": "inhibition at 10 µM", "setting": "[5]; plate control @ 10 uM, read-out: % Inhibition n2", "value": 93, "unit": "%"},
      {"measurement": "inhibition at 10 µM", "setting": "[5]; plate control @ 10 uM, read-out: % Inhibition n3", "value": 94, "unit": "%"}
    ]}
  ]
}
